pIC50: −log10 of the molar value.
Experiments:
rat adipocyte lipolysis = test: Rat adipocyte assay (epinephrine-stimulated lipolysis, glycerol release); type: cell-based; details: for Adipocyte % Inhib. at 3 μM: 3 μM compound; for pIC50: epinephrine 3 μM plus methylisobutylxanthine 10 μM, 1 hour at 37° C., read-out: Adipocyte I50; for inhibition at 100 µM: read-out: Adipocyte % Inhib. at 100 μM
Method: Abdominal fat pads were removed from male rats weighing 200-250 grams and placed in Krebs-bicarbonate buffer gassed with 95% O2 /5% CO2. The fat pads were digested with collagenase for 1 hour at 37° C., washed twice with Krebs-bicarbonate buffer and distributed among a set of 20 ml plastic counting vials. Two such vials received only buffer and cells (4 ml) but no agonists or antagonists. The remaining vials received epinephrine (3 μM) plus the phosphodiesterase inhibitor methylisobutylxanthine (10 μM). Test compounds were dissolved in DMSO or water to a concentration of […] and […] was added to the buffer plus cells in the counting vials. The final compound concentration for routine screening was 200 μM (final concentration of DMSO=1%).
The cells were incubated for 1 hour at 37° C. under a 95% O2 /5% CO2 atmosphere. The incubation was stopped by placing the vials in crushed ice. The cells and medium were transferred to test tubes, centrifuged and the cell layer removed by aspiration. The aqueous phase was assayed for glycerol using the enzyme glycerol dehydrogenase.
The glycerol dehydrogenase assay for glycerol depends on the enzyme catalyzed conversion of glycerol to glyceraldehyde and NAD to NADH. The assay can detect as little as 5-10 nanomoles of glycerol. The aqueous phase, following removal of cells, usually contained about 50 to 80 nanomoles of glycerol per 300 μl of assayed sample if no inhibitory activity was present. Samples from the control tubes (no agonist) usually contained 0-5 nanomoles of glycerol per 300 μl of sample.

Canine cardiac lipases = test: Myocardial lipase assay; type: biochemical; details: for Lipase % Inh. at 100 μM: 100 μM compound, tested in duplicate; for pIC50: triolein emulsion, Tris pH 6.8, read-out: Lipase I50
Method: All compounds were dissolved in DMSO (final concentration 3.0%) and tested in duplicate at a concentration of 100 μM. Canine cardiac lipases were obtained by extracting washed heart membranes with buffer plus heparine and a small amount of Triton X-100 detergent. Because these enzymes are only active at an oil-water interface, the enzyme reaction is run in an oil-water emulsion that contains triolein substrate, Tris buffer (50mM, pH 6.8) and a small amount of bovine serum albumin (0.5%) added to stabilize the emulsion. A small amount of tritiated triolein was added to the unlabelled triolein substrate. Tritium-labelled oleic acid released by the lipases was extracted into hexane, separated from unreacted triolein and counted in a scintillation counter. Inhibitory agents reduce the amount of radioactivity appearing in the free fatty acid fraction isolated in the extraction procedure.

[1] = Rattus norvegicus, Adipocyte, 100 μM compound

**Q.** What does the source list for “8-quinolyl-3-methyl carbanilate [No. 12]”?
**A.** Adipocyte % Inhib. at 3 μM (rat adipocyte lipolysis): 5%; Lipase % Inh. at 100 μM (Canine cardiac lipases): 41%

**Q.** With `COc1cccc(NC(=O)Oc2cccc3cccnc23)c1` [No. 3, 8-quinolyl-3-methoxy carbanilate] as the molecule, how does the pIC50 (Canine cardiac lipases) read?
**A.** The pIC50 was 4.74.

**Q.** Which results are given for “8-quinolyl-4-methyl carbanilate [No. 11]”?
**A.** Adipocyte % Inhib. at 3 μM (rat adipocyte lipolysis): 52%; Lipase % Inh. at 100 μM (Canine cardiac lipases): 58%

**Q.** “2-methoxyphenyl-8-quinoyl carbamate [No. 5]” was tested. Which pIC50 (rat adipocyte lipolysis) did it give?
**A.** Its pIC50 is 5.24.

**Q.** What about the “Lipase % Inh. at 100 μM” value (Canine cardiac lipases) of the same molecule?
**A.** Its value is 72%.

**Q.** `COc1ccc(NC(=O)Oc2cccc3cccnc23)cc1` [No. 1, 8-Quinolyl-4-Methoxy Carbanilate] was tested. Which pIC50 (Canine cardiac lipases) did it give?
**A.** Its pIC50 is 4.77.

**Q.** What does the source list for `COc1ccc(NC(=O)COc2cccc3cccnc23)cc1` [compound 25]?
**A.** inhibition at 100 µM (rat adipocyte lipolysis; [1]): 26%; Lipase % Inh. at 100 μM (Canine cardiac lipases): 7%

**Q.** With “2-methyl-8-quinolyl-4-methoxy carbanilate [No. 20]” as the molecule, how does the “Adipocyte % Inhib. at 3 μM” value (rat adipocyte lipolysis) read?
**A.** Its value is 5%.

**Q.** What about the pIC50 (Canine cardiac lipases) of the same molecule?
**A.** Its pIC50 is 4.10.

**Q.** How did the “Adipocyte % Inhib. at 30 μM” value (rat adipocyte lipolysis; 30 μM compound) turn out when “8-quninolyl-4-carbethoxy carbanilate [No. 7]” was run?
**A.** The value was 3%.

**Q.** And the “Lipase % Inh. at 100 μM” value (Canine cardiac lipases)?
**A.** The value was 75%.

**Q.** Which results are given for 8-quinolyl-carbanilate [No. 18]?
**A.** pIC50 (rat adipocyte lipolysis): 6.70; Lipase % Inh. at 100 μM (Canine cardiac lipases): 65%

**Q.** For “8-quinolyl-3-trifluoromethyl carbanilate [No. 14]”, which “Adipocyte % Inhib. at 3 μM” value (rat adipocyte lipolysis) is on record?
**A.** Its value is 76%.

**Q.** And the “Lipase % Inh. at 100 μM” value (Canine cardiac lipases)?
**A.** The value was 63%.

**Q.** “8-quinolyl-4-methoxy benzyl carbamate [No. 26]” was tested. Which “Adipocyte % Inhib. at 3 μM” value (rat adipocyte lipolysis) did it give?
**A.** Its value is 5%.

**Q.** And the “Lipase % Inh. at 100 μM” value (Canine cardiac lipases)?
**A.** The value was 68%.

**Q.** Which results are given for “(S)8-quinolyl alpha-methyl benzyl carbamate [No. 28]”?
**A.** Adipocyte % Inhib. at 200 μM (rat adipocyte lipolysis; 200 μM compound): 14%; Lipase % Inh. at 100 μM (Canine cardiac lipases): 83%

**Q.** How did the pIC50 (rat adipocyte lipolysis) turn out when “8-(4-Methoxyphenylcarbamoyl)-quinolin)-5-sulfonic acid, Triethylamine [No. 23]” was run?
**A.** Its pIC50 is 4.46.

**Q.** And the “Lipase % Inh. at 100 μM” value (Canine cardiac lipases)?
**A.** Its value is 76%.

**Q.** What does the source list for “8-quinolyl-2,4-dimethoxy carbanilate [No. 15]”?
**A.** Adipocyte % Inhib. at 3 μM (rat adipocyte lipolysis): 84%; Lipase % Inh. at 100 μM (Canine cardiac lipases): 64%

**Q.** Which “Adipocyte % Inhib. at 3 μM” value (rat adipocyte lipolysis) does the source give for “5-chloro-8-quinolyl carbanilate [No. 22]” here?
**A.** The value was 29%.

**Q.** What about the “Lipase % Inh. at 100 μM” value (Canine cardiac lipases) of the same molecule?
**A.** The value was 68%.

**Q.** With `COc1ccccc1NC(=O)Oc1cccc2cccnc12` [No. 2, 8-quinolyl-2-methoxy carbanilate] as the molecule, how does the pIC50 (Canine cardiac lipases) read?
**A.** The pIC50 was 4.40.

**Q.** 8-quinolyl-4-chloro carbanilate [No. 8] was tested. Which pIC50 (rat adipocyte lipolysis) did it give?
**A.** Its pIC50 is 4.52.

**Q.** And the pIC50 (Canine cardiac lipases)?
**A.** The pIC50 was 4.70.

**Q.** For 8-quinolyl-3-chloro carbanilate [No. 9], which “Adipocyte % Inhib. at 200 μM” value (rat adipocyte lipolysis; 200 μM compound) is on record?
**A.** Its value is 4%.

**Q.** What about the pIC50 (Canine cardiac lipases) of the same molecule?
**A.** The pIC50 was 2.14.

**Q.** Which results are given for “8-quinolyl-2,5-dimethoxy carbanilate [No. 16]”?
**A.** Adipocyte % Inhib. at 3 μM (rat adipocyte lipolysis): 40%; Lipase % Inh. at 100 μM (Canine cardiac lipases): 7%

**Q.** With “2-methyl-8-quinolyl carbanilate [No. 19]” as the molecule, how does the pIC50 (rat adipocyte lipolysis) read?
**A.** Its pIC50 is 5.00.

**Q.** And the pIC50 (Canine cardiac lipases)?
**A.** Its pIC50 is 4.32.

**Q.** Which results are given for “8-Quinolyl-4-methoxy Acetanilide [No. 25]”?
**A.** pIC50 (rat adipocyte lipolysis): 4.46; Lipase % Inh. at 100 μM (Canine cardiac lipases): 74%

**Q.** `COc1ccc(CC(=O)Oc2cccc3cccnc23)cc1` [No. 30, 8-Quinoloyl-4-methoxyphenylAcetate] was tested. Which inhibition at 100 µM (rat adipocyte lipolysis; [1]) did it give?
**A.** Its inhibition at 100 µM is 74%.

**Q.** Which “Adipocyte % Inhib. at 200 μM” value (rat adipocyte lipolysis; 200 μM compound) does the source give for “8-quinolyl-2-chloro carbanilate [No. 10]” here?
**A.** Its value is 44%.

**Q.** What about the pIC50 (Canine cardiac lipases) of the same molecule?
**A.** Its pIC50 is 3.70.

**Q.** 8-quinolyl-4-bromo carbanilate [No. 17] was tested. Which “Adipocyte % Inhib. at 3 μM” value (rat adipocyte lipolysis) did it give?
**A.** Its value is 7%.

**Q.** And the “Lipase % Inh. at 100 μM” value (Canine cardiac lipases)?
**A.** The value was 56%.

**Q.** Which inhibition at 200 µM (rat adipocyte lipolysis; Rattus norvegicus, Adipocyte, 200 μM compound, read-out: Adipocyte % Inhib. at 200 μM) does the source give for `COc1ccc(C(=O)Oc2cccc3cccnc23)cc1` [No. 31, 8-quinolyl-4-methoxy benzoate] here?
**A.** Its inhibition at 200 µM is 49%.

**Q.** What about the “Lipase % Inh. at 100 μM” value (Canine cardiac lipases) of the same molecule?
**A.** The value was 13%.

**Q.** For “8-quinolyl-2-methyl carbanilate [No. 13]”, which “Lipase % Inh. at 100 μM” value (Canine cardiac lipases) is on record?
**A.** The value was 1%.

**Q.** “5,7-dichloro-8-quinolyl carbanilate [No. 24]” was tested. Which pIC50 (rat adipocyte lipolysis) did it give?
**A.** Its pIC50 is 6.70.

**Q.** What about the “Lipase % Inh. at 100 μM” value (Canine cardiac lipases) of the same molecule?
**A.** Its value is 68%.

**Q.** What does the source list for “(R)8-quinolyl alpha-methyl benzyl carbamate [No. 29]”?
**A.** Adipocyte % Inhib. at 200 μM (rat adipocyte lipolysis; 200 μM compound): 28%; Lipase % Inh. at 100 μM (Canine cardiac lipases): 56%

**Q.** What does the source list for “2-methyl-8-quinolyl-4-bromo carbanilate [No. 21]”?
**A.** Adipocyte % Inhib. at 3 μM (rat adipocyte lipolysis): 28%; Lipase % Inh. at 100 μM (Canine cardiac lipases): 69%

**Q.** Which results are given for “8-quinolyl-4-methoxy phenethyl carbamate [No. 27]”?
**A.** Adipocyte % Inhib. at 3 μM (rat adipocyte lipolysis): 4%; Lipase % Inh. at 100 μM (Canine cardiac lipases): 69%

**Q.** For 4-Methoxyphenyl-8-quinolyl Urea [No. 6], which “Adipocyte % Inhib. at 100 μM” value (rat adipocyte lipolysis; 100 μM compound) is on record?
**A.** The value was 98%.

**Q.** What about the “Lipase % Inh. at 100 μM” value (Canine cardiac lipases) of the same molecule?
**A.** The value was 70%.
